The values that follow come from patent US10723765B2, “Beta-hairpin peptidomimetics as selective elastase inhibitors” (POLYPHOR AG, priority 2013, dated 2020).

Format in all cases: biochemical
The target in assay [1] is T1, porcine pancreatic elastase (Sus scrofa, UniProt P00772).
T1 construct: purchased Sigma, USA
Description: Inhibition of porcine pancreatic elastase (MeOSuc-AAA-pNA hydrolysis). Particulars: for IC50: 15 nM enzyme, 1 mM substrate, 37° C., pH8, read-out: Porcine pancreatic elastase (PPE) IC50; for hNE/PPE selectivity: ratio of PPE IC50 to hNE IC50. The method, then: 2.3. Inhibition of Porcine Pancreatic Elastase
The ability of the peptides of the invention to inhibit the hydrolysis activity of porcine pancreatic elastase (Sigma, USA) using the synthetic tripeptidic substrate MeOSuc-AAA-pNA (Bachem, Switzerland) was determined as follows:
The above substrate (1 mM) and […] porcine pancreatic elastase (15 nM) were incubated at 37° C. with serial dilutions of the peptides (0.5% DMSO final) in assay buffer (50 mM Tris, pH8, 100 mM NaCl, 0.01% Tween20). The release of pNA was followed by monitoring the change in absorbance at 405 nm for 30 minutes. Control assays with the same assay set-up as above, but without peptide, ran linearly. The dose-response data were fitted to the 4-parameter Hill equation providing the IC50 value using Graphpad (Prism 5).

Assay [2] concerns the target T2, human neutrophil elastase (Homo sapiens, UniProt P08246).
T2 construct: purchased Serva Electrophoresis, Germany
T2 sequence (P08246 30-267): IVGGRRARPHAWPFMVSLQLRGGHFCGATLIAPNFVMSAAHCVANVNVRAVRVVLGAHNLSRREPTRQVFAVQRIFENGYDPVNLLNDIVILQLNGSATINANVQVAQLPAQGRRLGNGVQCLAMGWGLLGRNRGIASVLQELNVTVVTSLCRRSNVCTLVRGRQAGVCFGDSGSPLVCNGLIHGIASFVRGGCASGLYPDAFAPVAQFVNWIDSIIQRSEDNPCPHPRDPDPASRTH
Description: Inhibition of human neutrophil elastase (MeOSuc-AAPV-pNA hydrolysis). The note with it: 10 nM enzyme, 0.3 mM substrate, 37° C., pH 8; read-out: Human neutrophil elastase (hNE) IC50. As for the experimental part:
2.2. Inhibition of Human Neutrophil Elastase
The ability of the peptides of the invention to inhibit the hydrolysis activity of human neutrophil elastase (Serva Electrophoresis, Germany) using the synthetic tetrapeptidic substrate MeOSuc-AAPV-pNA (Bachem, Switzerland) was determined as follows:
The above substrate (0.3 mM) and human neutrophil elastase (10 nM) were incubated at 37° C. with serial dilutions of the peptides (1% DMSO final) in assay buffer (50 mM Tris, pH 8, 300 mM NaCl, 0.01% Tween20). The release of pNA was followed by monitoring the change in absorbance at 405 nm for 30 minutes. Control assays with the same assay set-up as above, but without peptide, ran linearly. The dose-response data were fitted to the 4-parameter Hill equation providing the IC50 value using Graphpad (Prism 5).

In assay [3] the target is T3, human proteinase 3 (Homo sapiens, UniProt P24158).
T3 construct: purchased Elastin Products Company, USA
T3 sequence (P24158 28-248): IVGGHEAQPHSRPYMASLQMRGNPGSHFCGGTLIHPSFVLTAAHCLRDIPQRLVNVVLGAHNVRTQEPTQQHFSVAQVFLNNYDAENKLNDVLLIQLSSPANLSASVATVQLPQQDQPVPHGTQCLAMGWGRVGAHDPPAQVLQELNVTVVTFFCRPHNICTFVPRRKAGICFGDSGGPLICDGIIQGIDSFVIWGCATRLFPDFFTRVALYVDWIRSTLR
As to the kind of experiment: Inhibition of human proteinase 3 (Boc-Ala-Ala-Nva-SBzl). The note with it: for IC50: 10 nM enzyme, 1 mM substrate, 37° C., pH7.4, read-out: Human proteinase 3 (hPr3) IC50; for hNE/hPr3 selectivity: ratio of hPr3 IC50 to hNE IC50. The method, then:
2.4. Inhibition of Human Proteinase 3
The inactivation of human proteinase 3 (Elastin Products Company, USA) by the peptides of the invention using synthetic tripeptidic substrate Boc-Ala-Ala-Nva-SBzl (Elastin Products Company, USA) was determined as follows:
The above substrate (1 mM), 4,4′-dithiodipyridine (250 μM) and human proteinase 3 (10 nM) were incubated at 37° C. with serial dilutions of the peptides (0.5% DMSO final) in assay buffer (50 mM Tris, pH7.4, 150 mM NaCl, 0.01% Tween20). The reaction process was followed by monitoring the change in absorbance at 340 nm for 30 minutes. Control assays with the same assay set-up as above, but without peptide, ran linearly. The dose-response data were fitted to the 4-parameter Hill equation providing the IC50 value using Graphpad (Prism 5).

Non-standard residues stand in square brackets, D forms with d. Residues, ends and D or L forms follow the SMILES beside them. Gly(octyl) = CCCCCCCC[C@H](N)C(=O)O; hTyr = N[C@@H](CCc1ccc(O)cc1)C(=O)O; hArg = N=C(N)NCCCC[C@H](N)C(=O)O; Aad = N[C@@H](CCCC(=O)O)C(=O)O; AllylGly = C=CC[C@H](N)C(=O)O; Nle = CCCC[C@H](N)C(=O)O

By IC50 is commonly meant the concentration that inhibits the measured activity by half.

T1 sequence (P00772 27-266): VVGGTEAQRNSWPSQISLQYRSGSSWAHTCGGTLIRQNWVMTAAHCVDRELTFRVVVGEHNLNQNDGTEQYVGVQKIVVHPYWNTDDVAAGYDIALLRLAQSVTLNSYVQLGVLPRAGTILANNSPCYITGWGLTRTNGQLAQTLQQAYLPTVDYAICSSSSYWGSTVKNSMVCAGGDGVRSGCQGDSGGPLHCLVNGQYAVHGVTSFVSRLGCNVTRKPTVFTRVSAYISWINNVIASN

As for `CC[C@H](C)[C@@H]1NC(=O)[C@H](CO)NC(=O)[C@H](C)NC(=O)[C@H]([C@@H](C)O)NC(=O)[C@H](CCc2ccc(O)cc2)NC(=O)[C@H](CCCNC(=N)N)NC(=O)[C@@H]2CCCN2C(=O)[C@H]2CCCN2C(=O)[C@H](Cc2ccc(O)cc2)NC(=O)[C@H](CCCCN)NC(=O)[C@H](CCC(N)=O)NC(=O)[C@@H]2CCCN2C(=O)[C@@H]2CCCN2C1=O` [Example 5, Cyclo(-Arg-hTyr-Thr-Ala-Ser-Ile-Pro-Pro-Gln-Lys-Tyr-^DPro-Pro-)] (cyclo(R[hTyr]TASIPPQKY[dP]P)), in assay [1], the IC50 turned out to be 1750 nM and the hNE/PPE selectivity came out at 138. The IC50 in assay [2] amounted to 12.7 nM. For the same compound, in assay [3], the IC50 amounted to 1710 nM and the hNE/hPr3 selectivity is 135.

Consider `CC[C@H](C)[C@@H]1NC(=O)[C@H](CO)NC(=O)[C@H](C)NC(=O)[C@H]([C@@H](C)O)NC(=O)[C@H](C(C)C)NC(=O)[C@H](CCCNC(=N)N)NC(=O)[C@@H]2CCCN2C(=O)[C@H]2CCCN2C(=O)[C@H]([C@@H](C)O)NC(=O)[C@H](CCCCN)NC(=O)[C@H](CCC(N)=O)NC(=O)[C@@H]2CCCN2C(=O)[C@@H]2CCCN2C1=O` [Example 16, Cyclo(-Arg-Val-Thr-Ala-Ser-Ile-Pro-Pro-Gln-Lys-Thr-^DPro-Pro-)] (cyclo(RVTASIPPQKT[dP]P)), for which the IC50 in assay [1] is above 100000 nM; in assay [2], 26.4 nM; in assay [3], above 100000 nM. Also, in assay [1], the hNE/PPE selectivity was above 3788. Besides, the hNE/hPr3 selectivity in assay [3] is above 3788.

In the case of `CC[C@H](C)[C@@H]1NC(=O)[C@H](CO)NC(=O)[C@H](C)NC(=O)[C@H]([C@@H](C)O)NC(=O)[C@H](CCC(=O)O)NC(=O)[C@H](CCCNC(=N)N)NC(=O)[C@@H]2CCCN2C(=O)[C@H]2CCCN2C(=O)[C@H](Cc2c[nH]cn2)NC(=O)[C@H](CCCCN)NC(=O)[C@H](Cc2ccc(O)cc2)NC(=O)[C@@H]2CCCN2C(=O)[C@@H]2CCCN2C1=O` [Example 14, Cyclo(-Arg-Glu-Thr-Ala-Ser-Ile-Pro-Pro-Tyr-Lys-His-^DPro-Pro-)] (cyclo(RETASIPPYKH[dP]P)), in assay [1], the IC50 is 4650 nM and the hNE/PPE selectivity came to 229. Further, the IC50 in assay [2] turned out to be 20.3 nM. For the same compound, in assay [3], the IC50 was 77600 nM and the hNE/hPr3 selectivity is listed as 3823.

Turning to `CCCC[C@@H]1NC(=O)[C@H](CCCNC(=N)N)NC(=O)[C@@H]2CCCN2C(=O)[C@H]2CCCN2C(=O)[C@H](Cc2ccc(O)cc2)NC(=O)[C@H](CCCCN)NC(=O)[C@H](CCC(N)=O)NC(=O)[C@@H]2CCCN2C(=O)[C@@H]2CCCN2C(=O)[C@H]([C@@H](C)CC)NC(=O)[C@H](CO)NC(=O)[C@H](C)NC(=O)[C@H]([C@@H](C)O)NC1=O` [Example 6, Cyclo(-Arg-Nle-Thr-Ala-Ser-Ile-Pro-Pro-Gln-Lys-Tyr-^DPro-Pro-)] (cyclo(R[Nle]TASIPPQKY[dP]P)), in assay [1], the IC50 was found to be 2690 nM and the hNE/PPE selectivity turned out to be 174. Moreover, the IC50 in assay [2] worked out at 15.5 nM. In addition, in assay [3], the IC50 is 2370 nM and the hNE/hPr3 selectivity came out at 153.

As to `CC[C@H](C)[C@@H]1NC(=O)[C@H](CO)NC(=O)[C@H](C)NC(=O)[C@H]([C@@H](C)O)NC(=O)[C@H](CCC(=O)O)NC(=O)[C@H](CCCCNC(=N)N)NC(=O)[C@@H]2CCCN2C(=O)[C@H]2CCCN2C(=O)[C@H]([C@@H](C)O)NC(=O)[C@H](CCCCN)NC(=O)[C@H](CCC(N)=O)NC(=O)[C@@H]2CCCN2C(=O)[C@@H]2CCCN2C1=O` [Example 9, Cyclo(-hArg-Glu-Thr-Ala-Ser-Ile-Pro-Pro-Gln-Lys-Thr-^DPro-Pro-)] (cyclo([hArg]ETASIPPQKT[dP]P)), in assay [1], the IC50 turned out to be 83400 nM and the hNE/PPE selectivity stood at 3519. For the same compound, the IC50 in assay [2] was 23.7 nM. In addition, in assay [3], the IC50 is 70100 nM and the hNE/hPr3 selectivity is given as 2958.

Turning to `CCCCCCCC[C@@H]1NC(=O)[C@@H]2CCCN2C(=O)[C@H]2CCCN2C(=O)[C@H]([C@@H](C)O)NC(=O)[C@H](CCCCN)NC(=O)[C@H](Cc2ccc(O)cc2)NC(=O)[C@@H]2CCCN2C(=O)[C@@H]2CCCN2C(=O)[C@H]([C@@H](C)CC)NC(=O)[C@H](CO)NC(=O)[C@H](C)NC(=O)[C@H]([C@@H](C)O)NC(=O)[C@H](CCC(=O)O)NC1=O` [Example 2, Cyclo(-OctGly-Glu-Thr-Ala-Ser-Ile-Pro-Pro-Tyr-Lys-Thr-^DPro-Pro-)] (cyclo([Gly(octyl)]ETASIPPYKT[dP]P)), the IC50 in assay [1] amounted to 530 nM; in assay [2] it was 5.4 nM; in assay [3] it was 1520 nM. Moreover, in assay [1], the hNE/PPE selectivity was found to be 98. For the same compound, the hNE/hPr3 selectivity in assay [3] worked out at 282.

Take `CC[C@H](C)[C@@H]1NC(=O)[C@H](CO)NC(=O)[C@H](C)NC(=O)[C@H]([C@@H](C)O)NC(=O)[C@H](CCC(=O)O)NC(=O)[C@H](CCCNC(=N)N)NC(=O)[C@@H]2CCCN2C(=O)[C@H]2CCCN2C(=O)[C@H](CCCC(N)=O)NC(=O)[C@H](CCCCN)NC(=O)[C@H](Cc2ccc(O)cc2)NC(=O)[C@@H]2CCCN2C(=O)[C@@H]2CCCN2C1=O` [Example 12, Cyclo(-Arg-Glu-Thr-Ala-Ser-Ile-Pro-Pro-Tyr-Lys-hGln-^DPro-Pro-)] (cyclo(RETASIPPYK[Aad](NH2)[dP]P)): in assay [1], the IC50 was above 100000 nM and the hNE/PPE selectivity is on record as above 10000. For the same compound, in assay [2], the IC50 stood at 10 nM. In addition, in assay [3], the IC50 is above 100000 nM and the hNE/hPr3 selectivity is given as above 10000.

`C=CC[C@@H]1NC(=O)[C@H]([C@@H](C)O)NC(=O)[C@H](CCC(=O)O)NC(=O)[C@H](CCCNC(=N)N)NC(=O)[C@@H]2CCCN2C(=O)[C@H]2CCCN2C(=O)[C@H]([C@@H](C)O)NC(=O)[C@H](CCCCN)NC(=O)[C@H](CCC(N)=O)NC(=O)[C@@H]2CCCN2C(=O)[C@@H]2CCCN2C(=O)[C@H]([C@@H](C)CC)NC(=O)[C@H](CO)NC1=O` [Example 7, Cyclo(-Arg-Glu-Thr-AllylGly-Ser-Ile-Pro-Pro-Gln-Lys-Thr-^DPro-Pro-)] (cyclo(RET[AllylGly]SIPPQKT[dP]P)): the IC50 amounted to 59000 nM in assay [1], 14.9 nM in assay [2] and 80200 nM in assay [3]. In assay [1], the hNE/PPE selectivity is given as 3960. The hNE/hPr3 selectivity in assay [3] turned out to be 5383.

For `CCCCCCCC[C@@H]1NC(=O)[C@@H]2CCCN2C(=O)[C@H]2CCCN2C(=O)[C@H]([C@@H](C)O)NC(=O)[C@H](CCCCN)NC(=O)[C@H](CCC(N)=O)NC(=O)[C@@H]2CCCN2C(=O)[C@@H]2CCCN2C(=O)[C@H]([C@@H](C)CC)NC(=O)[C@H](CO)NC(=O)[C@H](C)NC(=O)[C@H]([C@@H](C)O)NC(=O)[C@H](CCC(=O)O)NC1=O` [Example 4, Cyclo(-OctGly-Glu-Thr-Ala-Ser-Ile-Pro-Pro-Gln-Lys-Thr-^DPro-Pro-)] (cyclo([Gly(octyl)]ETASIPPQKT[dP]P)), in assay [1], the IC50 worked out at 2750 nM and the hNE/PPE selectivity came to 348. Further, in assay [2], the IC50 was 7.9 nM. Further, in assay [3], the IC50 was 2150 nM and the hNE/hPr3 selectivity was determined as 272.
